How the values were obtained:
PIKFYVE = biological target: T1, PIKFYVE (Homo sapiens, UniProt Q9Y2I7); assay: NanoBRET TE Intracellular Kinase Assay, interaction of PIKFYVE and compounds in HEK293 cells; assay type: cell-based; settings: IC50 class from BRET; HEK293 cells expressing PIKFYVE-NanoLuc; 2 hours incubation
T1 construct: host or cells: HEK293 (ATCC, CRL-1573)
Method: To predict the efficacy of the compounds according to Example on PIKFYVE in humans, the interaction between PIKFYVE and the compounds was tested using the HEK293 cell line derived from human embryonic kidney (ATCC, CRL-1573) via NanoBRETT TE Intracellular Kinase Assay Service of Carna biosciences Inc., (Japan). The evaluation method provided by Carna biosciences Inc., was shown below and the NanoBRET™ TE Intracellular Kinase Assay, K-8 Kit (Promega, CS1810C88) was used.
The HEK-293 cells cultured in Opti-MEM™ I Reduced Serum Medium (Thermo Fisher, 11058-021) were transfected with Transfection Carrier DNA (Promega, E4881), PIKFYVE-NanoLuc Fusion Vector (Promega, CS1810C225), and FuGENE HD Transfection Reagent (Promega, E2311) to produce cells expressing genes combining PIKFYVE and NanoLuc, followed by culturing 100 μl (2×10^5 cells/ml) each in 96-well plates (Corning, 3917).
10× compounds according to Examples or Comparative Examples prepared by concentration in 1× NanoBRET™ tracer reagent and DMSO were reacted in 96-well plates and incubated for 2 hours in a 37° C., 5% CO2 incubator.
After the reaction was completed, 3× Complete NanoBRET™ Nano-Glo Substrate solution was added to each well, and the reaction was allowed to run for 2-3 minutes at room temperature before BRET was measured using a GloMax Discover Multimode Microplate Reader (Promega).

human GST-PIKFYVE = biological target: T2, human GST-PIKFYVE (Homo sapiens, UniProt Q9Y2I7); assay: ADP-Glo kinase assay, enzyme inhibition activity against human PIKFYVE (Carna biosciences); assay type: biochemical; settings: inhibitory activity at final compound concentration 10 nM; 1 hour at room temperature
T2 construct: GST; purchased Carna biosciences 11-118
Summary of the method: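 Human GST-PIKFYVE (glutathione Sepharose-purified) was reacted with substrate and ATP for 1 h at room temperature in 50 mM MOPS, 1 mM DTT, pH 7.2, with compound at 10 nM final. ADP formed was read by ADP-Glo luminescence; inhibition was calculated against no-enzyme (100%) and no-compound (0%) controls.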

T1 sequence (Q9Y2I7 whole entry): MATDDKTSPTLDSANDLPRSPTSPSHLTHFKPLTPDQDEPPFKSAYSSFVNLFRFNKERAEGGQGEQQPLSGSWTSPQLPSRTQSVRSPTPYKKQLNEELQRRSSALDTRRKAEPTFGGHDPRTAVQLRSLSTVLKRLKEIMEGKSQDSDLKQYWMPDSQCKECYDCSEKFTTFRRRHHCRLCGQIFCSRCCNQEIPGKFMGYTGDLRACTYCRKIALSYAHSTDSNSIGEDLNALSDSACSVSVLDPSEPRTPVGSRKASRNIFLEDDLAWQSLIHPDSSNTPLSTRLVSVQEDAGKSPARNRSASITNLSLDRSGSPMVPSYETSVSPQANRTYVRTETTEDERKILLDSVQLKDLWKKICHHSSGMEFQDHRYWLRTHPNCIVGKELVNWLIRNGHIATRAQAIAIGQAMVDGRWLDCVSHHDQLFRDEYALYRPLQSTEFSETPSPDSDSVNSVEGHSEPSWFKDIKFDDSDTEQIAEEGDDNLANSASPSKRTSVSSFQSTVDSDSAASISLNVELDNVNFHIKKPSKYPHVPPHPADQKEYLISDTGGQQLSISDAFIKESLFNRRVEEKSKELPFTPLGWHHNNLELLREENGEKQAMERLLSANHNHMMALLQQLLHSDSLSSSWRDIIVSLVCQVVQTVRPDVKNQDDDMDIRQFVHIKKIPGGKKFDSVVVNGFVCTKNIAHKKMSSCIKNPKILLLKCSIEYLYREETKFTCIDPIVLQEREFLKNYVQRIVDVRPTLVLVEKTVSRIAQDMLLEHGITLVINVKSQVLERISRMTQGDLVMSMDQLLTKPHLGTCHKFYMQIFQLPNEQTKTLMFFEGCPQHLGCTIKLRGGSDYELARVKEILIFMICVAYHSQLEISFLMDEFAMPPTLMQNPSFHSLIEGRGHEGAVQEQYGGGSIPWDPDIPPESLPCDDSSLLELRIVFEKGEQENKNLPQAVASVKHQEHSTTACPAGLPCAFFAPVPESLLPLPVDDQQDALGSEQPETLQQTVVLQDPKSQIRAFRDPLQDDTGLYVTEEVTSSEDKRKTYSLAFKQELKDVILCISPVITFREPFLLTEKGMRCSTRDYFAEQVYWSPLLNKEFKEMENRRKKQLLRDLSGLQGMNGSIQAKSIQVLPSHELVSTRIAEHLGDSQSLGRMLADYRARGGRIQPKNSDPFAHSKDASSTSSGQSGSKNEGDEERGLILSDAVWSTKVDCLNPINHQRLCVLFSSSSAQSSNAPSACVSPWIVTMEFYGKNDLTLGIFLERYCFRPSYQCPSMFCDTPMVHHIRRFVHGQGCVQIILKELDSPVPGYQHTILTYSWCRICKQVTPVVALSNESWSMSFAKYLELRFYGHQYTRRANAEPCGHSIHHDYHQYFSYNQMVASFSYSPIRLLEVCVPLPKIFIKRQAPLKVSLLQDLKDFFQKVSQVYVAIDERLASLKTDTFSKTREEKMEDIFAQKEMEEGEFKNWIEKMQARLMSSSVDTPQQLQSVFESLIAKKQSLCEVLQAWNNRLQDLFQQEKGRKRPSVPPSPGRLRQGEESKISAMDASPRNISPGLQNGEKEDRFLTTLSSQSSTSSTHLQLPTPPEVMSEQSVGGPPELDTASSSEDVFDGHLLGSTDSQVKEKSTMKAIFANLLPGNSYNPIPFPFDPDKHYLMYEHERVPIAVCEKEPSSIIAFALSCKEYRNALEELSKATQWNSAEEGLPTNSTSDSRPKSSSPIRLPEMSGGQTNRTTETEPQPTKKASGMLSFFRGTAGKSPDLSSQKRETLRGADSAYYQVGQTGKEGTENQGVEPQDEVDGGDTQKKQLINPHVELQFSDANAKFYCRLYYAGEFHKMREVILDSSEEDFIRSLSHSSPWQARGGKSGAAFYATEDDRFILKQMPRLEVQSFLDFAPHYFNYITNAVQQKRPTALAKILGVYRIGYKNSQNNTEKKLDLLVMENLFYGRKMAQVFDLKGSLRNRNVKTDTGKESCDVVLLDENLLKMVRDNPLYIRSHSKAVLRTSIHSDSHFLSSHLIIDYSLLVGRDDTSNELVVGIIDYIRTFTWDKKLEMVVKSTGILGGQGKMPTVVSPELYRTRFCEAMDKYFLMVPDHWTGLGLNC
T2 sequence (Q9Y2I7 whole entry): as above

| Compound | IC50 (PIKFYVE) | ADP-Glo kinase assay (%, 10 nM) (human GST-PIKFYVE) |
| --- | --- | --- |
| Cc1cccc(/C=N/Nc2nc(N3CCOCC3)nc3c2ncn3C2CCN(C(=O)c3cccnc3)CC2)c1 [Example 87, (E)-(4-(6-(2-(3-methylbenzylidene)hydrazinyl)-2-morpholino-9H-purin-9-yl)piperidin-1-yl)(pyridin-3-yl)methanone] | 10 to 20 nM | 63.65% |
| Cc1cccc(/C=N/Nc2nc(N3CCOCC3)nc3c2ncn3C2CCN(C(=O)N3CCOCC3)CC2)c1 [Example 88, (E)-(4-(6-(2-(3-methylbenzylidene)hydrazinyl)-2-morpholino-9H-purin-9-yl)piperidin-1-yl)(morpholino)methanone] | 20 to 30 nM | 64.66% |
| Cc1cccc(/C=N/Nc2nc(N3CCOCC3)nc3c2ncn3C2CCN(C(=O)c3ccccc3)CC2)c1 [Example 89, (E)-(4-(6-(2-(3-methylbenzylidene)hydrazinyl)-2-morpholino-9H-purin-9-yl)piperidin-1-yl)(phenyl)methanone] | 10 to 20 nM | 76.44% |
| Cc1cccc(/C=N/Nc2nc(N3CCOCC3)nc3c2ncn3C2CCN(C(=O)N(C)C)CC2)c1 [Example 90, (E)-N,N-dimethyl-4-(6-(2-(3-methylbenzylidene)hydrazinyl)-2-morpholino-9H-purin-9-yl)piperidine-1-carboxamide] | 20 to 30 nM | 66.88% |
| COC(=O)N1CCC(n2cnc3c(N/N=C/c4cccc(C)c4)nc(N4CCOCC4)nc32)CC1 [Example 91, methyl (E)-4-(6-(2-(3-methylbenzylidene)hydrazinyl)-2-morpholino-9H-purin-9-yl)piperidine-1-carboxylate] | 10 to 20 nM | 73.33% |
| Cc1cccc(/C=N/Nc2nc(N3CCOCC3)nc3c2ncn3C2CCN(S(C)(=O)=O)CC2)c1 [Example 92, (E)-4-(6-(2-(3-methylbenzylidene)hydrazinyl)-9-(1-(methylsulfonyl)piperidin-4-yl)-9H-purin-2-yl)morpholino] | 20 to 30 nM | 61.82% |
| Cc1cccc(/C=N/Nc2nc(N3CCOCC3)nc3c2ncn3C2CCN(C(=O)c3ccncc3)CC2)c1 [Example 93, (E)-(4-(6-(2-(3-methylbenzylidene)hydrazinyl)-2-morpholino-9H-purin-9-yl)piperidin-1-yl)(pyridin-4-yl)methanone] | 20 to 30 nM | 66.78% |
| Cc1cccc(/C=N/Nc2nc(N3CCOC[C@@H]3C)nc3c2ncn3-c2cccnc2)c1 [Example 97, (S,E)-3-methyl-4-(6-(2-(3-methylbenzylidene)hydrazinyl)-9-(pyridin-3-yl)-9H-purin-2-yl)morpholine] | 10 to 20 nM | 78.47% |
| Cc1cccc(/C=N/Nc2nc(N3CCOCC3)nc3c2ncn3-c2ccccn2)c1 [Example 99, (E)-4-(6-(2-(3-methylbenzylidene)hydrazinyl)-9-(pyridin-2-yl)-9H-purin-2-yl)morpholine] | ≤ 10 nM | 87.24% |
| Cc1cccc(/C=N/Nc2nc(N3CCOCC3)nc3c2ncn3-c2ccc(Cl)cc2)c1 [Example 100, (E)-4-(9-(4-chlorophenyl)-6-(2-(3-methylbenzylidene)hydrazinyl)-9H-purin-2-yl)morpholine] | ≤ 10 nM | 83.22% |
| Cc1cccc(/C=N/Nc2nc(N3CCOCC3)nc3c2ncn3-c2ccnc(O)c2)c1 [Example 102, (E)-4-(6-(2-(3-methylbenzylidene)hydrazinyl)-2-morpholino-9H-purin-9-yl)pyridin-2-ol] | ≤ 10 nM | 91.19% |
| Cc1cccc(/C=N/Nc2nc(N3CCOCC3)nc3c2ncn3-c2ccncc2)c1 [Example 103, (E)-4-(6-(2-(3-methylbenzylidene)hydrazinyl)-9-(pyridin-4-yl)-9H-purin-2-yl)morpholine] | ≤ 10 nM | 91.20% |
| Cc1cccc(/C=N/Nc2nc(N3CCOCC3)nc3c2ncn3-c2ccc(C(F)(F)F)cc2)c1 [Example 104, (E)-4-(6-(2-(3-methylbenzylidene)hydrazinyl)-9-(4-(trifluoromethyl)phenyl)-9H-purin-2-yl)morpholine] | 10 to 20 nM | 68.18% |
| Cc1cccc(-c2ccn(-c3nc(N4CCOCC4)nc4c3ncn4-c3ccncc3)n2)c1 [Example 107, 4-(9-(pyridin-4-yl)-6-(3-(m-tolyl)-1H-pyrazol-1-yl)-9H-purin-2-yl)morpholine] | ≤ 10 nM | 82.62% |
| COc1ccc(-n2cnc3c(N/N=C/c4cccc(C)c4)nc(N4CCOCC4)nc32)nc1 [Example 108, (E)-4-(9-(5-methoxypyridin-2-yl)-6-(2-(3-methylbenzylidene)hydrazinyl)-9H-purin-2-yl)morpholine] | ≤ 10 nM | 80.35% |
| Cc1cccc(/C=N/Nc2nc(N3CCOCC3)nc3c2ncn3-c2ccc(C)nc2)c1 [Example 110, (E)-4-(6-(2-(3-methylbenzylidene)hydrazinyl)-9-(6-methylpyridin-3-yl)-9H-purin-2-yl)morpholine] | ≤ 10 nM | 88.60% |
| C(=N\Nc1nc(N2CCOCC2)nc2c1ncn2-c1ccncc1)/c1c[nH]c2ccccc12 [Example 112, (E)-4-(6-(2-((1H-indol-3-yl)methylene)hydrazinyl)-9-(pyridin-4-yl)-9H-purin-2-yl)morpholine] | ≤ 10 nM | 89.10% |
| COc1ccc(-n2cnc3c(N/N=C/c4cccc(C)c4)nc(N4CCOCC4)nc32)cn1 [Example 113, (E)-4-(9-(6-methoxypyridin-3-yl)-6-(2-(3-methylbenzylidene)hydrazinyl)-9H-purin-2-yl)morpholine] | ≤ 10 nM | 87.10% |
| Cc1cccc(/C=N/Nc2nc(N3CCOCC3)nc3c2ncn3-c2ccc(O)nc2)c1 [Example 114, (E)-5-(6-(2-(3-methylbenzylidene)hydrazinyl)-2-morpholino-9H-purin-9-yl)pyridin-2-ol] | 20 to 30 nM | 80.06% |
| Cc1cccc(/C=N/Nc2nc(N3CCOCC3)nc3c2ncn3-c2ccnc(Cl)c2)c1 [Example 115, (E)-4-(9-(2-chloropyridin-4-yl)-6-(2-(3-methylbenzylidene)hydrazinyl)-9H-purin-2-yl)morpholine] | ≤ 10 nM | 92.24% |
| Cc1cccc(/C=N/Nc2nc(N3CCOCC3)nc3c2ncn3-c2ccc(Cl)cn2)c1 [Example 116, (E)-4-(9-(5-chloropyridin-2-yl)-6-(2-(3-methylbenzylidene)hydrazinyl)-9H-purin-2-yl)morpholine] | ≤ 10 nM | 87.75% |
| Cc1cccc(-c2ccn(-c3nc(N4CCOCC4)nc4c3ncn4-c3cccnc3)n2)c1 [Example 118, 4-(9-(pyridin-3-yl)-6-(3-(m-tolyl)-1H-pyrazol-1-yl)-9H-purin-2-yl)morpholine] | ≤ 10 nM | 81.33% |
| Cc1cccc(/C=N/Nc2nc(N3CCOCC3)nc3c2ncn3-c2ccccc2)c1 [Example 119, (E)-4-(6-(2-(3-methylbenzylidene)hydrazinyl)-9-phenyl-9H-purin-2-yl)morpholine] | ≤ 10 nM | 80.61% |
| Cc1cccc(/C=N/Nc2nc(N3CCOCC3)nc3c2ncn3-c2ccc(N(C)C)cc2)c1 [Example 123, (E)-N,N-dimethyl-4-(6-(2-(3-methylbenzylidene)hydrazinyl)-2-morpholino-9H-purin-9-yl)aniline] | ≤ 10 nM | 84.48% |
| COc1ccccc1-n1cnc2c(N/N=C/c3cccc(C)c3)nc(N3CCOCC3)nc21 [Example 124, (E)-4-(9-(2-methoxyphenyl)-6-(2-(3-methylbenzylidene)hydrazinyl)-9H-purin-2-yl)morpholine] | ≤ 10 nM | 87.81% |
| Cc1cccc(/C=N/Nc2nc(N3CCOCC3)nc3c2ncn3-c2cccc(OC3CC3)c2)c1 [Example 125, (E)-4-(9-(3-cyclopropoxyphenyl)-6-(2-(3-methylbenzylidene)hydrazinyl)-9H-purin-2-yl)morpholine] | ≤ 10 nM | 65.27% |
| Cc1cccc(/C=N/Nc2nc(N3CCOCC3)nc3c2ncn3-c2cccc(O)c2)c1 [Example 131, (E)-3-(6-(2-(3-methylbenzylidene)hydrazinyl)-2-morpholino-9H-purin-9-yl)phenol] | ≤ 10 nM | 91.40% |
| COc1cccc(-n2cnc3c(-n4ccc(-c5cccc(C)c5)n4)nc(N4CCOCC4)nc32)c1 [Example 137, 4-(9-(3-methoxyphenyl)-6-(3-(m-tolyl)-1H-pyrazol-1-yl)-9H-purin-2-yl)morpholine] | ≤ 10 nM | 81.44% |

From patent US20250388582A1, “NOVEL BICYCLIC HETEROARYL COMPOUND AND USE THEREOF” (ILDONG PHARMACEUTICAL CO., LTD., priority 2022, published 2025)
